Measurements from patent US12077503B2, “Substituted cyclic amides and their use as herbicides” (FMC CORPORATION, priority 2015, dated 2024).

Experiments:
Type in all cases: in vivo
[1] = system: ivy-leaved morning glory (Ipomoea hederacea); assay: Test G Pre-Emergence Protocol; conditions: Ipomoea, pre-emergence, 312 h, evaluated after 13 days; for pest or weed control at 15.625 g/ha: 15.625 g ai/ha; for pest or weed control at 15.625 g/ha / pest or weed control at 250 g/ha: read-out: Morningglory, Ivy-leaved damage rating (100=total damage to plant; 0=no damage to plant); for pest or weed control at 62.5 g/ha: 62.5 g ai/ha, 100=total damage to plant, 0=no damage to plant, read-out: Morningglory, Ivy-leaved damage rating; for pest or weed control at 250 g/ha: 250 g ai/ha
In short: (§1)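 Pots of seeds in standard soil were grown for one day in a glasshouse (24/16 °C day/night, 14 h light, 65% humidity), then sprayed with compound in acetone/water 50:50 with 0.5% Tween 20 at 15.625, 62.5 or 250 g/ha. Damage was scored after 13 days on a 0 (none) to 100 (total) scale.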

[2] = system: velvetleaf (Abutilon theophrasti); assay: Test G Pre-Emergence Protocol; conditions: Abutilon theophrasti, pre-emergence, 312 h, evaluated after 13 days; for pest or weed control at 15.625 g/ha: 15.625 g ai/ha; for pest or weed control at 15.625 g/ha / pest or weed control at 250 g/ha: read-out: Velvetleaf damage rating (100=total damage to plant; 0=no damage to plant); for pest or weed control at 62.5 g/ha: 62.5 g ai/ha, 100=total damage to plant, 0=no damage to plant, read-out: Velvetleaf damage rating; for pest or weed control at 250 g/ha: 250 g ai/ha
In short: as §1

[3] = system: giant foxtail (Setaria faberi); assay: Test G Pre-Emergence Protocol; conditions: Setaria faberi, pre-emergence, 312 h, evaluated after 13 days; for pest or weed control at 15.625 g/ha: 15.625 g ai/ha; for pest or weed control at 15.625 g/ha / pest or weed control at 250 g/ha: read-out: Foxtail, Giant damage rating (100=total damage to plant; 0=no damage to plant); for pest or weed control at 62.5 g/ha: 62.5 g ai/ha, 100=total damage to plant, 0=no damage to plant, read-out: Foxtail, Giant damage rating; for pest or weed control at 250 g/ha: 250 g ai/ha
In short: as §1

[4] = system: barnyardgrass (Echinochloa crus-galli); assay: Test G Pre-Emergence Protocol; conditions: Echinochloa crus-galli, pre-emergence, 312 h, evaluated after 13 days; for pest or weed control at 15.625 g/ha: 15.625 g ai/ha; for pest or weed control at 15.625 g/ha / pest or weed control at 250 g/ha: read-out: Barnyardgrass damage rating (100=total damage to plant; 0=no damage to plant); for pest or weed control at 62.5 g/ha: 62.5 g ai/ha, 100=total damage to plant, 0=no damage to plant, read-out: Barnyardgrass damage rating; for pest or weed control at 250 g/ha: 250 g ai/ha
In short: as §1

corn (Zea mays) [5] = assay: Test G Pre-Emergence Protocol; conditions: Zea mays, pre-emergence, 312 h, evaluated after 13 days; for plant injury at 15.625 g/ha: 15.625 g ai/ha; for plant injury at 15.625 g/ha / plant injury at 250 g/ha: read-out: Corn damage rating (100=total damage to plant; 0=no damage to plant); for plant injury at 62.5 g/ha: 62.5 g ai/ha, 100=total damage to plant, 0=no damage to plant, read-out: Corn damage rating; for plant injury at 250 g/ha: 250 g ai/ha
In short: as §1

[6] = system: redroot pigweed (Amaranthus retroflexus); assay: Test G Pre-Emergence Protocol; conditions: Amaranthus retroflexus, pre-emergence, 312 h, evaluated after 13 days; for pest or weed control at 15.625 g/ha: 15.625 g ai/ha; for pest or weed control at 15.625 g/ha / pest or weed control at 250 g/ha: read-out: Pigweed, Redroot damage rating (100=total damage to plant; 0=no damage to plant); for pest or weed control at 62.5 g/ha: 62.5 g ai/ha, 100=total damage to plant, 0=no damage to plant, read-out: Pigweed, Redroot damage rating; for pest or weed control at 250 g/ha: 250 g ai/ha
In short: as §1

[7] = system: ivy-leaved morning glory (Ipomoea hederacea); assay: Test G Post-Emergence Protocol; conditions: Ipomoea, post-emergence, 312 h, read-out: Morningglory, Ivy-leaved damage rating; for pest or weed control at 15.625 g/ha: 15.625 g ai/ha, evaluated after 13 days (100=total damage to plant; 0=no damage to plant); for pest or weed control at 62.5 g/ha: 62.5 g ai/ha; for pest or weed control at 62.5 g/ha / pest or weed control at 250 g/ha: evaluated after 13 days, 100=total damage to plant, 0=no damage to plant; for pest or weed control at 250 g/ha: 250 g ai/ha
In short: (§2)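 Foliar application was made 8 days after sowing, using an aqueous spray of the active in acetone/water (50:50) with 0.5% Tween 20, at doses of 15.625, 62.5 or 250 g/ha. Injury was assessed 13 days later, where 100 meant the plant was fully damaged.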

[8] = system: velvetleaf (Abutilon theophrasti); assay: Test G Post-Emergence Protocol; conditions: Abutilon theophrasti, post-emergence, 312 h, read-out: Velvetleaf damage rating; for pest or weed control at 15.625 g/ha: 15.625 g ai/ha, evaluated after 13 days (100=total damage to plant; 0=no damage to plant); for pest or weed control at 62.5 g/ha: 62.5 g ai/ha; for pest or weed control at 62.5 g/ha / pest or weed control at 250 g/ha: evaluated after 13 days, 100=total damage to plant, 0=no damage to plant; for pest or weed control at 250 g/ha: 250 g ai/ha
In short: as §2

[9] = system: giant foxtail (Setaria faberi); assay: Test G Post-Emergence Protocol; conditions: Setaria faberi, post-emergence, 312 h, read-out: Foxtail, Giant damage rating; for pest or weed control at 15.625 g/ha: 15.625 g ai/ha, evaluated after 13 days (100=total damage to plant; 0=no damage to plant); for pest or weed control at 62.5 g/ha: 62.5 g ai/ha; for pest or weed control at 62.5 g/ha / pest or weed control at 250 g/ha: evaluated after 13 days, 100=total damage to plant, 0=no damage to plant; for pest or weed control at 250 g/ha: 250 g ai/ha
In short: as §2

[10] = system: barnyardgrass (Echinochloa crus-galli); assay: Test G Post-Emergence Protocol; conditions: Echinochloa crus-galli, post-emergence, 312 h, read-out: Barnyardgrass damage rating; for pest or weed control at 15.625 g/ha: 15.625 g ai/ha, evaluated after 13 days (100=total damage to plant; 0=no damage to plant); for pest or weed control at 62.5 g/ha: 62.5 g ai/ha; for pest or weed control at 62.5 g/ha / pest or weed control at 250 g/ha: evaluated after 13 days, 100=total damage to plant, 0=no damage to plant; for pest or weed control at 250 g/ha: 250 g ai/ha
In short: as §2

corn (Zea mays) [11] = assay: Test G Post-Emergence Protocol; conditions: Zea mays, post-emergence, 312 h, read-out: Corn damage rating; for plant injury at 15.625 g/ha: 15.625 g ai/ha, evaluated after 13 days (100=total damage to plant; 0=no damage to plant); for plant injury at 62.5 g/ha: 62.5 g ai/ha; for plant injury at 62.5 g/ha / plant injury at 250 g/ha: evaluated after 13 days, 100=total damage to plant, 0=no damage to plant; for plant injury at 250 g/ha: 250 g ai/ha
In short: as §2

[12] = system: redroot pigweed (Amaranthus retroflexus); assay: Test G Post-Emergence Protocol; conditions: Amaranthus retroflexus, post-emergence, 312 h, read-out: Pigweed, Redroot damage rating; for pest or weed control at 15.625 g/ha: 15.625 g ai/ha, evaluated after 13 days (100=total damage to plant; 0=no damage to plant); for pest or weed control at 62.5 g/ha: 62.5 g ai/ha; for pest or weed control at 62.5 g/ha / pest or weed control at 250 g/ha: evaluated after 13 days, 100=total damage to plant, 0=no damage to plant; for pest or weed control at 250 g/ha: 250 g ai/ha
In short: as §2

Row | SMILES | pest or weed control at 15.625 g/ha [1] | pest or weed control at 62.5 g/ha [1] | pest or weed control at 250 g/ha [1] | pest or weed control at 15.625 g/ha [2] | pest or weed control at 62.5 g/ha [2] | pest or weed control at 250 g/ha [2] | pest or weed control at 15.625 g/ha [3] | pest or weed control at 62.5 g/ha [3] | pest or weed control at 250 g/ha [3] | pest or weed control at 15.625 g/ha [4] | pest or weed control at 62.5 g/ha [4] | pest or weed control at 250 g/ha [4] | plant injury at 15.625 g/ha (corn (Zea mays) [5]) | plant injury at 62.5 g/ha (corn (Zea mays) [5]) | plant injury at 250 g/ha (corn (Zea mays) [5]) | pest or weed control at 15.625 g/ha [6] | pest or weed control at 62.5 g/ha [6] | pest or weed control at 250 g/ha [6] | pest or weed control at 15.625 g/ha [7] | pest or weed control at 62.5 g/ha [7] | further results
1 | CCOc1cc([C@@H]2CN(C)C(=O)[C@H]2C(=O)Nc2cccc(F)c2C)ccc1F (racemic) [Compound 1767] | 0% | 0% | 20% | 0% | 0% | 30% | 60% | 80% | 90% | 20% | 60% | 80% | 0% | 30% | 60% | 0% | 0% | 0% | 30% | 30% | pest or weed control at 250 g/ha [7]: 60%; pest or weed control at 15.625 g/ha [8]: 0%; pest or weed control at 62.5 g/ha [8]: 0%; pest or weed control at 250 g/ha [8]: 60%; pest or weed control at 15.625 g/ha [9]: 70%; pest or weed control at 62.5 g/ha [9]: 70%; pest or weed control at 250 g/ha [9]: 80%; pest or weed control at 15.625 g/ha [10]: 40%; pest or weed control at 62.5 g/ha [10]: 50%; pest or weed control at 250 g/ha [10]: 80%; plant injury at 15.625 g/ha (corn (Zea mays) [11]): 10%; plant injury at 62.5 g/ha (corn (Zea mays) [11]): 10%; plant injury at 250 g/ha (corn (Zea mays) [11]): 60%; pest or weed control at 15.625 g/ha [12]: 0%; pest or weed control at 62.5 g/ha [12]: 0%; pest or weed control at 250 g/ha [12]: 20%
2 | CN1C[C@H](c2ccnc(C(C)(C)C)n2)[C@@H](C(=O)Nc2cccc(F)c2F)C1=O (racemic) [Compound 1769] | 0% | 0% | 0% | 0% | 0% | 0% | 20% | 40% | 90% | 0% | 20% | 70% | 0% | 0% | 0% | 0% | 0% | 0% | 0% | 0% | pest or weed control at 250 g/ha [7]: 20%; pest or weed control at 15.625 g/ha [8]: 0%; pest or weed control at 62.5 g/ha [8]: 0%; pest or weed control at 250 g/ha [8]: 0%; pest or weed control at 15.625 g/ha [9]: 0%; pest or weed control at 62.5 g/ha [9]: 10%; pest or weed control at 250 g/ha [9]: 60%; pest or weed control at 15.625 g/ha [10]: 0%; pest or weed control at 62.5 g/ha [10]: 0%; pest or weed control at 250 g/ha [10]: 50%; plant injury at 15.625 g/ha (corn (Zea mays) [11]): 0%; plant injury at 62.5 g/ha (corn (Zea mays) [11]): 0%; plant injury at 250 g/ha (corn (Zea mays) [11]): 10%; pest or weed control at 15.625 g/ha [12]: 0%; pest or weed control at 62.5 g/ha [12]: 0%; pest or weed control at 250 g/ha [12]: 0%
